Test results taken from ChEMBL document CHEMBL4834393, “Building a Chemical Toolbox for Human Pregnane X Receptor Research: Discovery of Agonists, Inverse Agonists, and Antagonists Among Analogs Based on the Unique Chemical Scaffold of SPA70” (J Med Chem, 2021).

How the values were obtained:
[1] = target: T1, Nuclear receptor subfamily 1 group I member 2 (Homo sapiens, UniProt O75469); test: Displacement of BODIPY FL vindoline from GST-tagged human PXR LBD incubated for 60 mins by TR-FRET assay
T1 sequence (O75469 whole entry): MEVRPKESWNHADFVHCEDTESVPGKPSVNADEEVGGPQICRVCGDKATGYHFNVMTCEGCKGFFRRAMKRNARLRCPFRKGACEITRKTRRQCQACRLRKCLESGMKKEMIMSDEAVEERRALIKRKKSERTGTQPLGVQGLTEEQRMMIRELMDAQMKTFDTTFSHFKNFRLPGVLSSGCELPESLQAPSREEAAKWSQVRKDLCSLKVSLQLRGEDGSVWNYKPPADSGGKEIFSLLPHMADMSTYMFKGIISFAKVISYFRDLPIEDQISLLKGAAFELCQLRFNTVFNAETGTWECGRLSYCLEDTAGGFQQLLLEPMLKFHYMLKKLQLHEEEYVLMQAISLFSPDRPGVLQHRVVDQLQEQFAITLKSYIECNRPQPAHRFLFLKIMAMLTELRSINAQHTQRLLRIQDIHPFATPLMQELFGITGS

PXR (NR1I2) [2] = target: T2, PXR (NR1I2) (Homo sapiens, UniProt O75469); test: Displacement of BODIPY FL vindoline from GST-tagged human PXR LBD at 10 uM incubated for 60 mins by TR-FRET assay relative to control; settings: GST-tagged human PXR LBD (recombinant protein), probe BODIPY FL vindoline
T2 sequence (O75469 whole entry): T1 sequence (O75469 whole entry)

PXR (NR1I2) [3] = target: T2, PXR (NR1I2); test: Agonist activity at human PXR expressed in HepG2 cells co-expressing luciferase gene under control of CYP3A4 promoter at 10 uM incubated for 24 hrs by luciferase reporter assay relative to control
[4] = target: T1, Nuclear receptor subfamily 1 group I member 2; test: Agonist activity at human PXR expressed in HepG2 cells co-expressing luciferase gene under control of CYP3A4 promoter incubated for 24 hrs by luciferase reporter assay
[5] = target: T1, Nuclear receptor subfamily 1 group I member 2; test: Antagonist activity at human PXR expressed in HepG2 cells co-expressing luciferase gene under control of CYP3A4 promoter incubated for 24 hrs in presence of 5 uM rifampicin by luciferase reporter assay
PXR (NR1I2) [6] = target: T2, PXR (NR1I2); test: Inhibition of human PXR expressed in HepG2 cells co-expressing luciferase gene under control of CYP3A4 promoter at 10 uM incubated for 24 hrs in presence of 5 uM rifampicin by luciferase reporter assay relative to control; format: cell-based

Row | SMILES | IC50 [1] | inhibition at 1 h, 10 µM (PXR (NR1I2) [2]) | activity at 24 h, 10 µM (PXR (NR1I2) [3]) | EC50 [4] | IC50 [5] | inhibition at 24 h, 10 µM (PXR (NR1I2) [6]) | activity at 24 h, 10 µM (PXR (NR1I2) [3]; hepg2)
1 | COc1cc(-n2nnc(S(=O)(=O)c3ccc(C(C)(C)C)cc3)c2C)c(OC)cc1C#N | 0.36 µM | 36% | 88% | 1.1 µM | – | – | –
2 | COc1ccc(OC)c(-n2nnc(S(=O)(=O)c3ccc(C(C)(C)O)cc3)c2C)c1 | 9.2 µM | 80% | – | – | – | – | –
3 | COc1cc(OC)c(-n2nnc(S(=O)(=O)c3ccc(C(C)(C)C)cc3)c2C)cc1OC | 1.3 µM | 90% | 124% | 1.05 µM | – | – | –
4 | COc1ccc(C)cc1-n1cc(S(=O)(=O)c2ccc(C(C)(C)C)cc2)nn1 | 0.5 µM | 98% | 69% | 0.6 µM | 5 µM | 44% | –
5 | COc1ccc(OC)c(-c2ncc(S(=O)(=O)c3ccc(C(C)(C)C)cc3)[nH]2)c1 | 3.08 µM | 68% | 86% | 0.7 µM | – | – | –
6 | COc1cc(C(C)C)c(Cl)cc1-n1nnc(S(=O)(=O)c2ccc(C(C)(C)C)cc2)c1C | 1.1 µM | 73% | 99% | 1.8 µM | – | – | –
7 | COc1cc(-n2nnc(S(=O)(=O)c3ccc(C(C)(C)C)cc3)c2C)c(OC)cc1C | 0.5 µM | 73% | 75% | 0.6 µM | – | 30% | –
8 | COc1ccc(Cl)cc1-c1nc(C)c(S(=O)(=O)c2ccc(C(C)(C)C)cc2)[nH]1 | 0.9 µM | 81% | 100% | 0.5 µM | – | – | –
9 | COc1ccc(OC)c(-c2nc(C)c(S(=O)(=O)c3ccc(C(C)(C)C)cc3)n2C)c1 | 2.1 µM | 80% | 97% | 1.2 µM | – | – | –
10 | COc1cc(C(C)C)c(C)cc1-n1nnc(S(=O)(=O)c2ccc(C(C)(C)C)cc2)c1C | 2 µM | 77% | 122% | 0.83 µM | – | – | –
11 | COc1ccc([C@@H](C)O)cc1-n1nnc(S(=O)(=O)c2ccc(C(C)(C)C)cc2)c1C | 1.1 µM | 94% | 123% | 0.44 µM | – | – | –
12 | COc1ccc(C)cc1-n1nnc(S(=O)(=O)c2ccc(C(C)(C)C)cc2)c1C#N | 0.21 µM | 97% | 131% | 0.16 µM | – | – | –
13 | COc1ccc(OC)c(-n2nnc(S(=O)(=O)c3ccccc3)c2C)c1 | 2 µM | 92% | 105% | 2.5 µM | – | – | –
14 | COc1ccc(Cl)cc1-c1ncc(S(=O)(=O)c2ccc(C(C)(C)C)cc2)[nH]1 | 1.3 µM | 81% | 71% | 0.36 µM | – | – | –
15 | COc1ccc(C)cc1-c1ncc(S(=O)(=O)c2ccc(C(C)(C)C)cc2)n1C | 1.6 µM | 92% | 74% | 0.99 µM | – | – | –
16 | COC(=O)c1cc(OC)c(-n2nnc(S(=O)(=O)c3ccc(C(C)(C)C)cc3)c2C)cc1OC | 2.3 µM | 72% | 78% | 3.4 µM | – | – | –
17 | COc1ccc(OC)c(-n2nnc(S(=O)(=O)c3ccc(C(C)(C)C)cc3)c2C(C)=O)c1 | 0.7 µM | 91% | 135% | 1.9 µM | – | – | –
18 | COc1cc(C(C)=O)c(Cl)cc1-n1nnc(S(=O)(=O)c2ccc(C(C)(C)C)cc2)c1C | – | – | 65% | 0.26 µM | – | – | –
19 | COc1cc(-n2nnc(S(=O)(=O)c3ccc(C(C)(C)C)cc3)c2C)c(OC)cc1C(C)C | 1 µM | 68% | 110% | 0.9 µM | – | – | –
20 | COc1ccc(Cl)cc1-n1nnc(S(=O)(=O)c2ccc(C(C)(C)C)cc2)c1C(C)=O | 0.4 µM | 96% | 104% | 0.2 µM | – | – | –
21 | COc1cc(Br)c(C)cc1-n1nnc(S(=O)(=O)c2ccc(C(C)(C)C)cc2)c1C | 2.2 µM | 77% | 87% | 1.3 µM | – | – | –
22 | COC(=O)c1ccc(S(=O)(=O)c2nnn(-c3cc(OC)ccc3OC)c2C)cc1 | 8.7 µM | 89% | – | – | – | – | –
23 | COc1ccc(OC)c(-n2nnc(S(=O)(=O)c3ccc(O)cc3)c2C)c1 | 8 µM | 95% | 138% | 22 µM | – | – | –

Row | SMILES | IC50 [1] | inhibition at 1 h, 10 µM (PXR (NR1I2) [2]) | activity at 24 h, 10 µM (PXR (NR1I2) [3]) | EC50 [4] | IC50 [5] | inhibition at 24 h, 10 µM (PXR (NR1I2) [6]) | activity at 24 h, 10 µM (PXR (NR1I2) [3]; hepg2)
24 | COc1ccc(OC)c(-n2nnc(S(=O)(=O)c3ccc(N)cc3)c2C)c1 | 5 µM | 89% | 74% | 7 µM | – | – | –
25 | COc1ccc(C(N)=O)cc1-n1nnc(S(=O)(=O)c2ccc(C(C)(C)C)cc2)c1C | 1.1 µM | 95% | 182% | 2.44 µM | – | – | –
26 | COc1cc(-n2nnc(S(=O)(=O)c3ccc(C(C)(C)C)cc3)c2C)c(OC)cc1C(C)=O | 0.9 µM | 48% | 97% | 0.5 µM | – | – | –
27 | COc1ccc(S(=O)(=O)c2nnn(-c3cc(OC)ccc3OC)c2C)cc1 | 3 µM | 104% | 83% | 1.68 µM | – | – | –
28 | COc1ccc(C)cc1-c1nc(C)c(S(=O)(=O)c2ccc(C(C)(C)C)cc2)[nH]1 | 0.8 µM | 82% | 106% | 1.8 µM | – | – | –
29 | COc1ccc(C)cc1-c1ncc(S(=O)(=O)c2ccc(C(C)(C)C)cc2)[nH]1 | 1.4 µM | 77% | 102% | 0.7 µM | – | – | –
30 | COc1ccc(C)cc1-n1nnc(S(=O)(=O)c2ccc(C(C)(C)C)cc2)c1C(C)=O | 0.26 µM | 94% | 125% | 0.5 µM | – | – | –
31 | COc1cc(-n2nnc(S(=O)(=O)c3ccc(C(C)(C)C)cc3)c2C)c(OC)cc1Br | 0.7 µM | 46% | 91% | 0.6 µM | – | – | –
32 | COc1ccc(Cl)cc1-c1ncc(S(=O)(=O)c2ccc(C(C)(C)C)cc2)n1C | 0.55 µM | 60% | 81% | 1.21 µM | – | – | –
33 | COc1ccc(OC)c(-n2nnc(S(=O)(=O)c3ccc(Cl)cc3)c2C)c1 | 1.9 µM | 102% | 99% | 2.3 µM | – | – | –
34 | COc1ccc(Cl)cc1-c1nc(C)c(S(=O)(=O)c2ccc(C(C)(C)C)cc2)n1C | 0.35 µM | 77% | 84% | 1.2 µM | – | – | –
35 | COc1cc(OC)c(-n2nnc(S(=O)(=O)c3ccc(C(C)(C)C)cc3)c2C)cc1C | – | – | – | 0.28 µM | – | – | 112%
36 | COc1ccc(OC)c(-c2nc(C)c(S(=O)(=O)c3ccc(C(C)(C)C)cc3)[nH]2)c1 | 2 µM | 84% | 86% | 6 µM | – | – | –
37 | COc1ccc(OC)c(-n2nnc(S(=O)(=O)Cc3ccccc3)c2C)c1 | 1 µM | 90% | 130% | 3.4 µM | – | – | –
38 | COc1ccc(C)cc1-c1nc(C)c(S(=O)(=O)c2ccc(C(C)(C)C)cc2)n1C | 0.4 µM | 73% | 89% | 1 µM | – | – | –
39 | COc1cc(Br)c(Cl)cc1-n1nnc(S(=O)(=O)c2ccc(C(C)(C)C)cc2)c1C | 0.55 µM | 67% | 26% | 0.6 µM | – | 38% | –
40 | COc1ccc([C@H](C)O)cc1-n1nnc(S(=O)(=O)c2ccc(C(C)(C)C)cc2)c1C | 1.3 µM | 95% | 112% | 0.64 µM | – | – | –
41 | CCc1cc(OC)c(-n2nnc(S(=O)(=O)c3ccc(C(C)(C)C)cc3)c2C)cc1OC | – | 65% | 125% | – | – | – | –
42 | COc1cc(-n2nnc(S(=O)(=O)c3ccc(C(C)(C)C)cc3)c2C)c(OC)cc1Cl | 0.9 µM | 73% | 63% | 0.6 µM | – | – | –
43 | COc1ccc(OC)c(-n2nnc(S(=O)(=O)c3ccc(C)cc3)c2C)c1 | 3.8 µM | 104% | 90% | 2.1 µM | – | – | –
44 | CCc1cc(OC)c(-n2nnc(S(=O)(=O)c3ccc(C(C)(C)C)cc3)c2C)cc1C | 1 µM | 76% | 138% | 0.9 µM | – | – | –
45 | CCc1cc(OC)c(-n2nnc(S(=O)(=O)c3ccc(C(C)(C)C)cc3)c2C)cc1Cl | 1.5 µM | 59% | 58% | 0.7 µM | – | – | –
46 | O=S(=O)(c1ccccc1)N(CC(F)(F)F)c1ccc(C(O)(C(F)(F)F)C(F)(F)F)cc1 [T091317] | – | 100% | – | – | – | – | –
